Data: patent EP0382634A1, “Pyridazine derivatives, process for their preparation and pharmaceutical compositions containing them” (ELF SANOFI, priority 1989, dated 1990)
pIC50: −log10 of the molar value.

Assays:
[1] = test system: rotations induites par la pirenzépine; experiment: Pirenzepine-induced rotations test (Worms et al., modified: oral dosing 4 h before pirenzepine); assay type: in vivo; settings: 3 mg/kg body weight, 4 h before pirenzepine injection
Protocol: In vivo, les composés selon l'invention ont été essayés sur le test des rotations induites par la pirenzépine décrit par Worms P. et al. (Psychopharmacology, 1987, 93, 489-493) modifié en ce que l'administration des produits par voie orale qui a eu lieu 4 heures au lieu de 30 minutes avant l'injection de pirenzépine.

récepteurs de type M1 = target: T1, récepteurs de type M1 (Homo sapiens, UniProt P11229); experiment: Muscarinic M1 receptor ligand binding (technique of Watson et al.); settings: in vitro; read-out: concentration inhibitrice 50 sur le ligand des récepteurs M1
T1 construct: une spécificité marquée pour les récepteurs centraux de type M1 vis-à-vis des récepteurs périphériques de type M2; from tissue; host or cells: central (brain) tissue
T1 sequence (P11229 1-460): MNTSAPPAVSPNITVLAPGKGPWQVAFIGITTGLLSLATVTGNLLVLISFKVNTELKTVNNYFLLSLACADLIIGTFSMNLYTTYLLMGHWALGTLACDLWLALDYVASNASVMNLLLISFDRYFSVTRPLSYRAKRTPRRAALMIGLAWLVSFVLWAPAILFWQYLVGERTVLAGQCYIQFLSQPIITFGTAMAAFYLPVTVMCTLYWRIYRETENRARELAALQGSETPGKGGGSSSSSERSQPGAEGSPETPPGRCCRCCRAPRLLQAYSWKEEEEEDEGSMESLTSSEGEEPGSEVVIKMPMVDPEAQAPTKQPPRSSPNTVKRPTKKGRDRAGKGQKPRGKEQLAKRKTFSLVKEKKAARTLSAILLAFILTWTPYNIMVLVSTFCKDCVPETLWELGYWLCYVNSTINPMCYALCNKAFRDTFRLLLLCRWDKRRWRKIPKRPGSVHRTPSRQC
From the text: In vitro, les composés (I) ont été essayés suivant la technique décrite par Watson J.D. et al. (Life Science, 1982, 31, 2019-2029) en ce qui concerne leur activité sur les récepteurs de type M1 et selon la technique décrite par Hammer R. et al. (Nature, 1980, 283, 90,92) et Hulme E.C. et al. (Molecular Pharmacology, 1978, 14, 737-750), en ce qui concerne leur activité sur les récepteurs de type M2.

Compound | inhibition des rotations induites par la pirenzépine [1] [%] | pIC50 (récepteurs de type M1)
Cc1cc(NCc2ccccn2)nnc1-c1ccccc1 [SR 96204 A] | 67 | –
CCCc1cc(NCC2CCCN2CC)nnc1-c1ccccc1 (stereo not drawn) [SR 96181] | 71 | 7.52
